pKi: −log10 of the molar value.
What was measured:
Coagulation factor IX = Coagulation factor IX (Homo sapiens, UniProt P00740); assay: Binding affinity towards human factor IXa
Coagulation factor X = Coagulation factor X (Homo sapiens, UniProt P00742); assay: Binding affinity towards human factor Xa
Coagulation factor X, sequence (P00742 41-179 limits assumed): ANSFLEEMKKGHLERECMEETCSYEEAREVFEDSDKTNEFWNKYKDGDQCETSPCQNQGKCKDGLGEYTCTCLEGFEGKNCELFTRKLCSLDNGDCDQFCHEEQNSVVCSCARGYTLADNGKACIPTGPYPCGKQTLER
Coagulation factor X, sequence (P00742 235-488 limits assumed): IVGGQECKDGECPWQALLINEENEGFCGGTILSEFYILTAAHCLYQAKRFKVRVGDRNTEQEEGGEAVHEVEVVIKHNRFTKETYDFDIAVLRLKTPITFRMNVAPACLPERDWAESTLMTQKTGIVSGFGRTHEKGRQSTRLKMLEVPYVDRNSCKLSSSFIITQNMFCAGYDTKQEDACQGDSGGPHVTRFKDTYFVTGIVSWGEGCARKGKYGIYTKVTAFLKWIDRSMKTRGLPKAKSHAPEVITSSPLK

Coagulation factor IX, sequence (P00740 47-191 limits assumed): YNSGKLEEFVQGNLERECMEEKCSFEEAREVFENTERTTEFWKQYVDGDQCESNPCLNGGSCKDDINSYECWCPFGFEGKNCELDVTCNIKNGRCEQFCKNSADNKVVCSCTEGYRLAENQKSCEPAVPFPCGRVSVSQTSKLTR
Coagulation factor IX, sequence (P00740 227-461 limits assumed): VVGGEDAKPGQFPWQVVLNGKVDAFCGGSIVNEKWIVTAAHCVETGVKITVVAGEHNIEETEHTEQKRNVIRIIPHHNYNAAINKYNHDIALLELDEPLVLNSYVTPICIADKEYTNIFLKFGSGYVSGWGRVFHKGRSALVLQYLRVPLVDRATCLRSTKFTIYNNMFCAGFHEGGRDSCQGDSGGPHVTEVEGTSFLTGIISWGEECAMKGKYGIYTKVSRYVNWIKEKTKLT

Row | pKi (Coagulation factor IX) | pKi (Coagulation factor X) | SMILES
1 | 6.60 | 7.44 | N=C(N)c1ccc2[nH]cc(C(CC(=O)Nc3ccc(-n4cnc5ccccc54)cc3)Cc3ccccc3)c2c1 (stereo not given)
2 | 6.51 | 7.14 | N=C(N)c1ccc2[nH]cc(C(Cc3ccccc3)C(=O)NCc3ccc(-n4cnc5ccccc54)cc3)c2c1 (stereo not given)
3 | 6.09 | 7.59 | N=C(N)c1ccc2[nH]cc([C@H](Cc3ccccc3)C(=O)Nc3ccc(-n4cnc5ccccc54)cc3F)c2c1
4 | 6.18 | 9.20 | N=C(N)c1ccc2[nH]cc(C(Cc3ccccc3)C(=O)Nc3ccc(-c4ccccc4S(N)(=O)=O)cc3)c2c1 (stereo not given)
5 | 6.18 | 5.96 | CS(=O)(=O)c1ccc2nc(NC(=O)c3ccc(CNC(=O)C(Cc4ccccc4)c4c[nH]c5ccc(C(=N)N)cc45)cc3)[nH]c2c1 (stereo not given)
6 | 5.42 | 7.85 | N=C(N)c1ccc2[nH]cc(C(CC3CC3)C(=O)Nc3ccc(-n4cnc5ccccc54)cc3)c2c1 (stereo not given)
7 | 6.80 | 8.55 | CCC(C(=O)Nc1ccc(-n2cnc3ccccc32)cc1)c1c[nH]c2ccc(C(=N)N)cc12 (stereo not given)
8 | 6.89 | 7.72 | N=C(N)c1ccc2[nH]cc(C(Cc3ccc(NS(=O)(=O)c4ccccc4)cc3)C(=O)Nc3ccc(-n4cnc5ccccc54)cc3)c2c1 (stereo not given)
9 | 6.52 | 8.25 | N=C(N)c1ccc2ccn(C(Cc3ccccc3)C(=O)Nc3ccc(-n4cnc5ccccc54)cc3F)c2c1 (stereo not given)
10 | 7.20 | 8.60 | N=C(N)c1ccc2[nH]cc(C(Cc3ccccc3)C(=O)Nc3ccc(-n4cnc5ccccc54)cc3F)c2c1 (racemic)

Further lines, the molecule ahead of its results:

Row | SMILES | pKi (Coagulation factor IX) | pKi (Coagulation factor X)
11 | N=C(N)c1ccc2[nH]cc(CC(=O)Nc3ccc(-c4ccccc4S(N)(=O)=O)cc3)c2c1 | 5.17 | 8.49
12 | CC(C(=O)Nc1ccc(-n2cnc3ccccc32)cc1)c1c[nH]c2ccc(C(=N)N)cc12 (stereo not given) | 6.32 | 8.52
13 | Cn1cc(C(Cc2ccccc2)C(=O)Nc2ccc(-n3cnc4ccccc43)cc2F)c2cc(C(=N)N)ccc21 (stereo not given) | 6.44 | 6.80
14 | N=C(N)c1ccc2[nH]cc(C(CCc3ccccc3)C(=O)Nc3ccc(-n4cnc5ccccc54)cc3F)c2c1 (stereo not given) | 6.62 | 8.21
15 | N=C(N)c1ccc2[nH]cc(C(Cc3ccc4ccccc4c3)C(=O)Nc3ccc(-n4cnc5ccccc54)cc3F)c2c1 (stereo not given) | 7.01 | 7.55
16 | N=C(N)c1ccc2[nH]cc(C(Cc3ccc(N)cc3)C(=O)Nc3ccc(-n4cnc5ccccc54)cc3)c2c1 (stereo not given) | 7.12 | 8.40
17 | N=C(N)c1ccc2[nH]cc(C(Cc3ccccc3)C(=O)Nc3ccc(-n4cnc(-c5ccccc5)c4)cc3)c2c1 (stereo not given) | 6.57 | 7.10
18 | N=C(N)c1ccc2[nH]cc([C@@H](Cc3ccccc3)C(=O)Nc3ccc(-n4cnc5ccccc54)cc3F)c2c1 | 7.72 | 8.89
19 | N=C(N)c1ccc2[nH]cc(C(Cc3ccccc3)C(=O)NCc3ccc(C(=O)Nc4nc5ccccc5[nH]4)cc3)c2c1 (stereo not given) | 6.03 | 6.09
20 | N=C(N)c1ccc2[nH]cc(CC(Cc3ccccc3)C(=O)Nc3ccc(-n4cnc5ccccc54)cc3)c2c1 (stereo not given) | 6.89 | 7.35
21 | N=C(N)c1ccc2[nH]cc(C(Cc3ccc(NC(=O)c4ccccc4)cc3)C(=O)Nc3ccc(-n4cnc5ccccc54)cc3)c2c1 (stereo not given) | 6.57 | 7.74
22 | N=C(N)c1ccc2[nH]cc(C(Cc3cccc(C(=O)O)c3)C(=O)Nc3ccc(-n4cnc5ccccc54)cc3F)c2c1 (stereo not given) | 7.23 | 8.74
23 | CC(C)(C(=O)Nc1ccc(-n2cnc3ccccc32)cc1)c1c[nH]c2ccc(C(=N)N)cc12 | 6.12 | 8.66
24 | N=C(N)c1ccc2[nH]cc(C(Cc3cccnc3)C(=O)Nc3ccc(-n4cnc5ccccc54)cc3)c2c1 (stereo not given) | 5.92 | 8.15
25 | N=C(N)c1ccc2[nH]cc(C(Cc3ccccc3)C(=O)NCc3cccc(C(=O)Nc4nc5ccccc5[nH]4)c3)c2c1 (stereo not given) | 5.72 | 5.59

Source: ChEMBL document CHEMBL1137916, “5-Amidinoindoles as dual inhibitors of coagulation factors IXa and Xa” (Bioorg Med Chem Lett, 2004)
